This note sets out measurements from PubChem BioAssay (NCI).

Test in all cases: NCI anticancer screen, dose series, 48 h
The subject of assay [1] is 786-0 renal.
In assay [2] the test system is ACHN renal.
The test system of assay [3] is COLO 205 colon.
Assay [4] concerns NCI-H23 lung.
Assay [5] concerns NCI-H522 lung.
The test system of assay [6] is RPMI-8226 leukemia.
Assay [7] relates to RXF 393 renal.
Assay [8] concerns SN12C renal.
The subject of assay [9] is SNB-75 CNS.
Assay [10] concerns UACC-257 melanoma.

Each structure is given as a SMILES string.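 Five concentrations, 48 hours, 96-well plates. The concentration for 50% growth inhibition is given as GI50. TGI marks complete inhibition of growth.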

In the case of `Oc1cccc(-c2nc3ccccc3s2)c1`, the TGI in assay [1] is more than 100 µM; in assay [2], more than 100 µM; in assay [3] it was more than 100 µM; in [4] it was 69.6 µM; in assay [5], 51 µM; in assay [6], more than 100 µM. Moreover, the TGI is more than 100 µM in [7], more than 100 µM in [8], 61.8 µM in assay [9] and more than 100 µM in assay [10].

For `CN1C(=O)c2cc(Cl)nc3c(NC(=O)c4cccc(Cl)c4)c(Cl)c(NC(=O)c4cccc(Cl)c4)c1c23`, the GI50 was 2.69 µM in [1]; 1.72 µM in assay [2]; 1.94 µM in [3]; 2.14 µM in assay [4]; 1.82 µM in [5]; 3.63 µM in assay [6]. The GI50 in [7] is 1.67 µM; in assay [8], 1.84 µM; in assay [9] it was 1.45 µM; in assay [10] it was 1.91 µM. In addition, the TGI in [1] was found to be 7.96 µM; in assay [2] it was 3.09 µM; in assay [3], 4.01 µM; in assay [4], 5.92 µM; in assay [5], 3.75 µM; in assay [6] it was 32.6 µM. For the same molecule, the TGI was found to be 3.12 µM in assay [7], 3.48 µM in assay [8], 2.84 µM in assay [9] and 3.55 µM in [10].

For the molecule `CC(C)OP(=O)(CP(=O)(OC(C)C)OC(C)C)OC(C)C.[CH3][Sn]([Br])([Br])[Br]`, the GI50 in assay [1], in assay [2], in [3], in assay [4], in [5] and in assay [6] was more than 100 µM in each case. Besides, the GI50 in [7], in assay [8], in assay [9] and in [10] was more than 100 µM each time. Also, the TGI in assay [1], in [2], in [3], in assay [4], in assay [5] and in [6] was more than 100 µM each time. In addition, the TGI in [7], in [8], in assay [9] and in [10] was more than 100 µM each time.

For `Nc1ncnc2occ(-c3ccc(NC(=O)Nc4cc(C(F)(F)F)cc(C(F)(F)F)c4)cc3)c12`, the GI50 in assay [1] was 3.54 µM; in [2], 2.94 µM; in [3] it was 4.23 µM; in assay [4], 3.12 µM; in [5], 2.55 µM; in [6] it was 3.68 µM. Moreover, the GI50 was 1.24 µM in assay [7], 2.12 µM in assay [8], 1.42 µM in assay [9] and 3.27 µM in assay [10]. For the same molecule, the TGI in assay [1] was determined as 7.07 µM; in assay [2] it was 12.6 µM; in assay [3], 7.96 µM; in assay [4], 6.86 µM; in assay [5] it was 5.67 µM; in [6], 16.4 µM. The TGI in [7] was determined as 4.51 µM; in assay [8], 5.51 µM; in assay [9], 4.88 µM; in assay [10], 6.69 µM.

Take `COc1ccc([Se]c2ccc(OC)cc2OC)c(OC)c1`: the TGI in assay [1] was more than 100 µM; in assay [2], more than 100 µM; in assay [3], 27.1 µM; in [4], more than 100 µM; in [5] it was 38.2 µM; in assay [6], more than 100 µM. The TGI in assay [7] is 59.5 µM; in assay [8] it was more than 100 µM; in [9], 36.9 µM; in assay [10] it was more than 100 µM.

As for `Oc1cc2cc(-c3ccccc3)[nH]c2c2ccccc12`, the TGI is more than 100 µM in assay [1]; more than 88.3 µM in [2]; more than 37.8 µM in assay [3]; 36.6 µM in assay [4]; 37.4 µM in assay [5]; 67.6 µM in assay [6]. Besides, the TGI in assay [7] is more than 78.3 µM; in assay [8] it was more than 92.9 µM; in assay [9], more than 100 µM; in assay [10], 32.5 µM.

Turning to `O=C1OCC(C(=O)c2cccc(O)c2)C1=O` (stereo not given), the TGI in assay [1], in assay [2], in assay [3], in assay [4], in assay [5] and in [6] was more than 100 µM in each case. Moreover, the TGI in [7], in [8], in assay [9] and in assay [10] was more than 100 µM each time.

Consider `CC1=CC2=C(C)C3(CC3)[C@@](C)(O)C(=O)C2=C1`, for which the TGI in assay [1] is 0.517 µM; in [2] it was 0.379 µM; in assay [3], 0.584 µM; in assay [4] it was 0.186 µM; in assay [5] it was 0.296 µM; in assay [6] it was more than 1 µM. For the same molecule, the TGI in [7] is 0.246 µM; in assay [8], 0.557 µM; in assay [9], 0.425 µM; in [10] it was 0.578 µM.

With `O=c1[nH]c(=O)n(C2CC(O)C(CO)O2)cc1C#Cc1ccc(C(F)(F)F)cc1` (stereo not given), the TGI in [1], in assay [2], in assay [3], in assay [4], in assay [5] and in assay [6] was more than 100 µM in each case. The TGI in assay [7], in assay [8], in assay [9] and in [10] was more than 100 µM each time.

Turning to `COC(=O)c1c(C)oc2ccc(OC(C)=O)cc12`, the TGI in assay [1], in assay [2], in assay [3], in assay [4], in assay [5] and in assay [6] was more than 100 µM throughout. Further, the TGI in [7], in [8], in [9] and in assay [10] was more than 100 µM throughout.

For the molecule `CCOP(=O)(OCC)/C(C#N)=C\c1cccc2ccccc12`, the TGI is more than 100 µM in [1]; more than 100 µM in assay [2]; more than 100 µM in assay [3]; more than 100 µM in assay [4]; more than 100 µM in assay [5]; more than 66.5 µM in [6]. Further, the TGI in assay [7] was more than 100 µM; in [8] it was more than 100 µM; in [9], 88.5 µM; in [10], more than 100 µM.

Regarding `C[C@@H](NC(=O)Cc1cc(F)cc(F)c1)C(=O)N[C@@]1(C)N=C(c2ccccc2)c2ccccc2N(C)C1=O`, the GI50 in assay [1] is more than 100 µM; in [2], more than 84.5 µM; in assay [3], 47.2 µM; in assay [4], 43.4 µM; in [5], 69.2 µM; in [6], 2.11 µM. In addition, the GI50 is 30.7 µM in [7], 32 µM in assay [8], more than 95.3 µM in assay [9] and 37.5 µM in [10]. Besides, the TGI was more than 100 µM in assay [1]; more than 100 µM in [2]; more than 100 µM in assay [3]; more than 100 µM in [4]; more than 100 µM in [5]; 10.5 µM in assay [6]. Further, the TGI in [7] is more than 100 µM; in assay [8], 97.5 µM; in [9] it was more than 100 µM; in assay [10], more than 100 µM.

Take `CC1(CC(=O)O)OC2CCCCCC2O1` (stereo not given) (tested in a mixture with another compound): the TGI in assay [1], in [2], in [3], in assay [4], in assay [5] and in [6] was more than 100 µM throughout. The TGI in [7], in [8], in assay [9] and in assay [10] was more than 100 µM in each case.

Regarding `COc1cc2oc3ccccc3c(=O)c2cc1CSc1ccccc1N`, the TGI in [1] was more than 100 µM; in assay [2], more than 100 µM; in assay [3], more than 95.6 µM; in assay [4], more than 100 µM; in assay [5], 41.1 µM; in assay [6], more than 87.6 µM. Moreover, the TGI was more than 45.5 µM in [7], more than 100 µM in assay [8], more than 100 µM in [9] and more than 100 µM in assay [10].

Consider `CC1OC(=O)N(CCCC=C2SCCCS2)C1=O` (stereo not given), for which the TGI in [1], in assay [2], in assay [3], in assay [4], in assay [5] and in assay [6] was more than 100 µM in each case. The TGI in assay [7], in assay [8], in assay [9] and in [10] was more than 100 µM throughout.

`CC(C)(C)n1cc(-c2ccnc(NCCNS(=O)(=O)c3ccc(Br)cc3)c2)c(-c2cccc(O)c2)n1`: the GI50 in assay [1] is 1.72 µM; in assay [2] it was 2.1 µM; in assay [3], 1.49 µM; in assay [4], 1.85 µM; in assay [5], 1.79 µM; in assay [6], 1.6 µM. Moreover, the GI50 in [7] was 1.49 µM; in [8], 1.72 µM; in assay [9], 1.36 µM; in assay [10], 1.93 µM. For the same molecule, the TGI was 3.82 µM in assay [1]; 4.39 µM in assay [2]; 3.13 µM in assay [3]; 3.97 µM in [4]; 4.04 µM in [5]; 5 µM in assay [6]. Also, the TGI in assay [7] was determined as 3.23 µM; in [8], 3.2 µM; in [9], 3.78 µM; in assay [10], 4.76 µM.

Take `Cc1cc(CS(=O)(=O)/C=C/c2ccccc2[N+](=O)[O-])c(CS(=O)(=O)/C=C/c2ccccc2[N+](=O)[O-])cc1C`: the TGI in assay [1] is 34.9 µM; in [2], more than 100 µM; in [3], more than 100 µM; in assay [4], more than 51.7 µM; in assay [5] it was more than 100 µM; in assay [6], more than 86 µM. In addition, the TGI is 41.2 µM in assay [7], more than 100 µM in [8], 32 µM in assay [9] and more than 100 µM in [10].

`COc1cc[nH]c1/C=C1\C(=O)Nc2ccc(F)c(C#CC3(O)CCOCC3)c21`: the GI50 in [1] is 0.824 µM; in assay [2] it was 0.487 µM; in assay [3], 0.408 µM; in assay [4], 0.609 µM; in assay [5] it was 1.08 µM; in assay [6] it was 0.76 µM. The GI50 is 0.305 µM in [7], 0.615 µM in [8], 0.338 µM in assay [9] and 0.749 µM in assay [10]. Besides, the TGI in assay [1] is more than 25 µM; in assay [2], more than 25 µM; in assay [3] it was 1.13 µM; in [4], 2.61 µM; in assay [5] it was 4.53 µM; in [6], 1.76 µM. The TGI was 1.01 µM in assay [7], more than 25 µM in assay [8], 1.94 µM in assay [9] and 2.76 µM in assay [10].

Turning to `CCOC(=O)c1cnc2[nH]c(=O)c3ccccc3n2c1=O`, the TGI in assay [1], in assay [2], in assay [3], in [4], in assay [5] and in assay [6] was more than 100 µM in each case. The TGI in assay [7], in assay [8], in assay [9] and in [10] was more than 100 µM in each case.

On to `Cc1c(C(C)C)cc(OCCO)cc1C(C)C`, for which the TGI was 63 µM in [1]; more than 100 µM in assay [2]; more than 100 µM in [3]; more than 100 µM in assay [4]; 81.5 µM in [5]; 74.3 µM in [6]. The TGI in [7] is 36.2 µM; in [8] it was 93.1 µM; in assay [9] it was more than 100 µM; in assay [10], more than 100 µM.
